Assay results taken from US20110245249A1, “Heterocyclically Substituted Anilinopyrimidines” (Bayer CropScience AG, priority 2008, published 2011).

Columns and labels:
[1] = tested on: Production of DON/acetyl-DON by Fusarium graminearum; assay: microbe, parasite or virus in culture; format: cell-based; conditions: 168 h, 7 days at 28° C., read-out: activity in the inhibition of DON/AcDON
[2] = logP by HPLC on reversed-phase columns (EEC Directive 79/831 Annex V.A8); format: physicochemical
How it was run: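 Values come from three gradient methods (10% to 95% acetonitrile) on C18 columns following EEC 79/831 Annex V.A8: LC-MS at pH 7.8 (0.001 molar ammonium bicarbonate), LC-MS at pH 2.7 (formic acid 0.1%, also in acetonitrile), and HPLC at pH 2.3 (phosphoric acid 0.1%).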

[3] = tested on: Fusarium proliferatum; assay: Growth of Fusarium proliferatum (OD620) in the fumonisin test; format: cell-based; conditions: for IC50: Fusarium proliferatum, 144 h, read-out: pI50 growth; for pI50 growth: OD620 at the beginning and after 6 days
[4] = tested on: Production of Fumonisin FB1 by Fusarium proliferatum; assay: Production of Fumonisin FB1 by Fusarium proliferatum; format: cell-based; conditions: FB1 in liquid medium after 6 days at 20° C., HPLC-MS/MS; for IC50: Fusarium proliferatum, 144 h, read-out: pI50 Fum (converted)
[5] = tested on: Phakopsora pachyrhizi; assay: Phakopsora test (soya beans)/protective; format: in vivo; conditions: protective, active compound concentration 250 ppm, evaluation 1 day after inoculation
Experimental: Phakopsora Test (Soya Beans)/Protective
Evaluation is carried out 1 day after the inoculation.

| Structure (SMILES) | log p ([2]; pH 2.7) | log p ([2]; pH 7.8) | also measured |
| --- | --- | --- | --- |
| Clc1cnc(Nc2cccc(C3OCCO3)c2)nc1NC1CC1 [Example 1, 5-Chloro-N^4-cyclopropyl-N^2-[3-(1,3-dioxolan-2-yl)phenyl]pyrimidine-2,4-diamine] |  |  | inhibition at 50 µM [1]: > 80%; chromatographic logP ([2]; pH 2.7, log p [b]): 1.59; chromatographic logP ([2]; pH 2.7, logP (pH 2.7)): 1.59; chromatographic logP ([2]; pH 7.8, log p [c]): 2.67; IC50 [3]: 0.398 µM; IC50 [4]: 0.158 µM |
| Clc1cnc(Nc2cccc(C3OCCCO3)c2)nc1NC1CC1 [Example 5, 5-Chloro-N^4-cyclopropyl-N^2-[3-(1,3-dioxan-2-yl)phenyl]pyrimidine-2,4-diamine] |  |  | chromatographic logP ([2]; pH 2.7, log p [b]): 1.69; chromatographic logP ([2]; pH 2.7, logP (pH 2.7)): 1.69; chromatographic logP ([2]; pH 7.8, log p [c]): 2.83; IC50 [3]: 0.794 µM; IC50 [4]: 0.251 µM |
| CC1(c2cccc(Nc3ncc(Cl)c(NC4CC4)n3)c2)OCCCO1 [Example 6] |  |  | pI50 growth [3]: 5.5 |
| CC1(c2cccc(Nc3ncc(Cl)c(NC4CC4)n3)c2)OCCO1 [Example 12, 5-Chloro-N^4-cyclopropyl-N^2-[3-(2-methyl-1,3-dioxolan-2-yl)phenyl]pyrimidine-2,4-diamine] |  |  | chromatographic logP ([2]; pH 2.7, log p [b]): 1.9; chromatographic logP ([2]; pH 2.7, logP (pH 2.7)): 1.9; chromatographic logP ([2]; pH 7.8, log p [c]): 3.09; IC50 [3]: 1.58 µM; IC50 [4]: 0.501 µM |
| CC1OC(c2cccc(Nc3ncc(Br)c(NC4CC4)n3)c2)OC1C (stereo not drawn) [Example 14] |  |  | log p [b] ([2]; pH 2.7): 2.31; log p [c] ([2]; pH 7.8): 3.5; pI50 growth [3]: 5.5 |
| CC1(C)COC(c2cccc(Nc3ncc(Br)c(NC4CC4)n3)c2)OC1 [Example 16] |  |  | log p [b] ([2]; pH 2.7): 2.65; log p [c] ([2]; pH 7.8): 3.9; pI50 Fum [4]: 6 |
| FC(F)(F)c1cnc(Nc2cccc(C3OCCO3)c2)nc1NC1CCC1 [Example 22] |  |  | log p [b] ([2]; pH 2.7): 3.06; log p [c] ([2]; pH 7.8): 3.57; pI50 growth [3]: 5.5 |
| CN(c1nc(Nc2cccc(C3OCCO3)c2)ncc1Cl)C1CC1 [Example 23] |  |  | log p [b] ([2]; pH 2.7): 2.52; log p [c] ([2]; pH 7.8): 3.45; pI50 growth [3]: 4.9 |
| FC(F)(F)c1cnc(Nc2cccc(C3OCCO3)c2)nc1NC1CC1 [Example 24] |  |  | log p [b] ([2]; pH 2.7): 3.7; log p [c] ([2]; pH 7.8): 3.02; pI50 growth [3]: 5.5; pI50 Fum [4]: 6 |
| CC1(c2ccc(Nc3ncc(Cl)c(NC4CC4)n3)cc2)OCCO1 [Example 27, 5-Chloro-N^4-cyclopropyl-N^2-[4-(2-methyl-1,3-dioxolan-2-yl)phenyl]pyrimidine-2,4-diamine] |  |  | chromatographic logP ([2]; pH 2.7, log p [b]): 1.84; chromatographic logP ([2]; pH 2.7, logP (pH 2.7)): 1.84; chromatographic logP ([2]; pH 7.8, log p [c]): 2.99; IC50 [3]: 1 µM; IC50 [4]: 0.398 µM |
| COCC1COC(c2cccc(Nc3ncc(Cl)c(NC4CC4)n3)c2)O1 (stereo not drawn) [Example 28] |  |  | log p [b] ([2]; pH 2.7): 2.21; log p [c] ([2]; pH 7.8): 2.81; pI50 Fum [4]: 6.5 |
| CC(C)(C)C1COC(c2cccc(Nc3ncc(Cl)c(NC4CC4)n3)c2)O1 (stereo not drawn) [Example 30] |  |  | log p [c] ([2]; pH 7.8): 4.34[c]; pI50 growth [3]: 5.3; pI50 Fum [4]: 6 |
| COCC1COC(c2cccc(Nc3ncc(C(F)(F)F)c(NC4CC4)n3)c2)O1 (stereo not drawn) [Example 105] |  |  | efficacy [5]: ≥ 80%; log p [a] ([2]; pH 2.3): 2.26; log p [b] ([2]; pH 2.7): 2.74[b]; log p [c] ([2]; pH 7.8): 3.23; pI50 growth [3]: 5.5 |
| Fc1ccc(Nc2ncc(Br)c(NC3CCC3)n2)cc1C1OCCO1 [Example 142] | 2.22 | 3.55 |  |
| Fc1ccc(Nc2ncc(C(F)(F)F)c(NC3CC3)n2)cc1C1OCCO1 [Example 143] | 2.76 | 3.2 |  |
| Fc1ccc(Nc2ncc(Cl)c(NC3CC3)n2)cc1C1OCCCO1 [Example 144] | 1.87 | 3.02 |  |
| Fc1ccc(Nc2ncc(Br)c(NC3CC3)n2)cc1C1OCCCO1 [Example 145] | 2.01 | 3.16 |  |
| Fc1ccc(Nc2ncc(Br)c(NC3CCC3)n2)cc1C1OCCCO1 [Example 146] | 2.3 | 3.75 |  |
| Fc1ccc(Nc2ncc(C(F)(F)F)c(NC3CC3)n2)cc1C1OCCCO1 [Example 147] | 2.27 | 3.40 |  |
| CC(C)Nc1nc(Nc2cccc(C3OCCO3)c2)ncc1Cl [Example 148] | 1.7 | 3.04 |  |

| Structure (SMILES) | log p ([2]; pH 2.7) | log p ([2]; pH 7.8) | also measured |
| --- | --- | --- | --- |
| CC(C)Nc1nc(Nc2cccc(C3OCCCO3)c2)ncc1Cl [Example 149] | 1.73 | 3.2 |  |
| CCC1COC(c2cccc(Nc3ncc(Br)c(NC4CC4)n3)c2)O1 (stereo not drawn) [Example 150] |  | 3.68[c] |  |
| Brc1cnc(Nc2cccc(C3OCCCO3)c2)nc1NC1CCC1 [Example 151] | 2.11 | 3.54 |  |
| Clc1cnc(Nc2cccc(C3OCCCO3)c2)nc1NCC1CC1 [Example 152] | 1.87[b] |  |  |
| FC(F)(F)c1cnc(Nc2cccc(C3OCCCO3)c2)nc1NC1CC1 [Example 153] | 2.71[b] |  |  |
| CCOCCOCC1COC(c2cccc(Nc3ncc(Cl)c(NC4CC4)n3)c2)O1 (stereo not drawn) [Example 154] | 2.05 | 3.13 |  |
| CC1CSC(c2cccc(Nc3ncc(C(F)(F)F)c(NC4CC4)n3)c2)S1 (stereo not drawn) [Example 155] | 4.14 | 4.44 |  |
| Clc1cnc(Nc2cccc(C3OCC(CBr)O3)c2)nc1NC1CC1 (stereo not drawn) [Example 156] | 2.39 | 3.48 |  |
| CC1CCC2OC(c3cccc(Nc4ncc(Cl)c(NC5CC5)n4)c3)OC12 (stereo not drawn) [Example 157] | 2.79 | 4.1 |  |
| CC1(C)OC(c2cccc(Nc3ncc(Cl)c(NC4CC4)n3)c2)OC1(C)C [Example 158] | 2.78 | 4.13 |  |
| CCC1(CO)COC(c2cccc(Nc3ncc(Cl)c(NC4CC4)n3)c2)OC1 (stereo not drawn) [Example 159] | 1.82 | 2.77 |  |
| OCC1CSC(c2cccc(Nc3ncc(Cl)c(NC4CC4)n3)c2)S1 (stereo not drawn) [Example 160] |  | 2.72[c] |  |
| CC1CSC(c2cccc(Nc3ncc(Cl)c(NC4CC4)n3)c2)S1 (stereo not drawn) [Example 161] | 2.79 | 4.14 |  |
| OCC1CSC(c2cccc(Nc3ncc(Cl)c(NC4CCC4)n3)c2)S1 (stereo not drawn) [Example 162] | 1.93 | 3.14 |  |
| CC1CSC(c2cccc(Nc3ncc(Cl)c(NC4CCC4)n3)c2)S1 (stereo not drawn) [Example 163] | 3.23 | 4.72 |  |
| OCC1CSC(c2cccc(Nc3ncc(Br)c(NC4CCC4)n3)c2)S1 (stereo not drawn) [Example 164] | 2.11 | 3.28 |  |
| CC1CSC(c2cccc(Nc3ncc(Br)c(NC4CCC4)n3)c2)S1 (stereo not drawn) [Example 165] | 3.49 | 4.92 |  |
| OCC1CSC(c2cccc(Nc3ncc(Br)c(NC4CC4)n3)c2)S1 (stereo not drawn) [Example 166] | 1.89 | 2.85 |  |
| CC1CSC(c2cccc(Nc3ncc(Br)c(NC4CC4)n3)c2)S1 (stereo not drawn) [Example 167] | 3.1 | 4.31 |  |
| OCC1CSC(c2cccc(Nc3ncc(C(F)(F)F)c(NC4CC4)n3)c2)S1 (stereo not drawn) [Example 168] | 2.65 | 3.03 |  |
